One molecule from patent publication US9186416B2, “Immunoconjugates, compositions for making them, and methods of making and use” (priority 2011, dated 2015) can be followed below.

One data set has as its system 786-O cell lysate. As to the kind of experiment: Dephosphorylation by 786-O cell lysate. The settings on record: 100 μM compound, 786-O lysate 2 mg/mL protein, pH 5.5, 37° C. Type of data set: in vitro ADME, human. Here is the method:
786-O cells, as frozen pellets with an estimated quantity of 10^7 cells per vortexing tube, were resuspended and homogenized in 500 μL of lysis buffer (25 mM NaOAc, 1 mM EDTA, 0.25 M sucrose, 0.1% Triton X-100, pH 5.5). Homogenization involved vortex mixing for 30 sec, followed by a one min cooling on ice. For each tube, three vortex and cooling cycles were performed. Cell samples were then further mixed by shearing in a 19 gauge needle three times.
Following homogenization, the DNA of the cell lysate was hydrolyzed using BENZONASE™ DNAse. Samples were first brought up in 1 mM MgSO4. After mixing, 2 μL of BENZONASE™ DNAse (neat) were added to each vial of lysate (4 μL/mL, v/v, final concentration). Samples were then stored at RT for 15 min and then cooled on ice. For this step, successful DNAse activity was evidenced by appearance of flocculent precipitate. Samples were then spun at maximum speed in a microcentrifuge for 5 min to remove cellular debris. Supernatant was frozen at −70° C. for later use. Protein concentration of the lysate was determined using Pierce BCA Protein Determination methodology (Thermo Scientific).
A 2000 μM stock solution of the compound of formula (Ia) was prepared. Lysate was diluted to 2.1 mg/mL in lysate buffer. For reaction, 5 μL of the compound (Ia) stock was added to 95 μL of lysate. […]

The next data set relates to H226 cell lysates. As to the kind of experiment: Dephosphorylation by H226 cell lysates. Type of data set: in vitro ADME, human. The settings on record: similar experiment.

For `Nc1ccc(C(=O)Nc2ccc3[nH]c(C(=O)N4C[C@@H](CCl)c5c4cc(OP(=O)(O)O)c4ccccc54)cc3c2)cc1` [compound (Ia)], the “time to complete dephosphorylation” value in the data set with 786-O cell lysate is no more than 8 h; with H226 cell lysates, no more than 3 h.
